Source: patent US20150105252A1, “SUBSTITUTED PYRAZOLES AS HERBICIDES” (E I DU PONT DE NEMOURS AND COMPANY, priority 2013, published 2015)

Key:
foxtail, giant [1] = assay: Test A preemergence; format: in vivo, Setaria faberii; conditions: preemergence
Procedure, shortened: (§1)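 Ratings express plant response from 0 (no effect) to 100 (complete control), judged visually against untreated controls after approximately 10 days in the greenhouse. Preemergence applications were made as directed soil sprays onto seeded loam–sand mix, and postemergence applications onto 2–10 cm plants at one- to two-leaf stage.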

pigweed [2] = assay: Test A preemergence; format: in vivo, Amaranthus retroflexus; conditions: preemergence
Procedure, shortened: as §1

crabgrass, large = assay: Test A postemergence; format: in vivo, Digitaria sanguinalis
Procedure, shortened: as §1

corn = assay: Test A postemergence; format: in vivo, Zea mays
Procedure, shortened: as §1

blackgrass [3] = assay: Test C preemergence; format: in vivo, Alopecurus myosuroides; conditions: for Blackgrass plant response rating: preemergence
Procedure, shortened: (§2)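 Postemergence values come from plants sprayed at the 1- to 4-leaf stage (2–18 cm) in peat moss–vermiculite medium; preemergence values from seeds treated in a loam–sand blend. Both evaluated visually against controls after 13–15 greenhouse days, scale 0–100.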

galium = assay: Test C preemergence; format: in vivo, Galium aparine; conditions: for Galium plant response rating: preemergence
Procedure, shortened: as §2

johnsongrass = assay: Test C preemergence; format: in vivo, Sorghum halepense; conditions: for Johnsongrass plant response rating: preemergence
Procedure, shortened: as §2

pigweed [4] = assay: Test C preemergence; format: in vivo, Amaranthus retroflexus; conditions: for Pigweed plant response rating: preemergence
Procedure, shortened: as §2

blackgrass [5] = assay: Test C postemergence; format: in vivo, Alopecurus myosuroides
Procedure, shortened: as §2

wheat = assay: Test C postemergence; format: in vivo, Triticum aestivum
Procedure, shortened: as §2

foxtail, giant [6] = assay: Test C postemergence; format: in vivo, Setaria faberii
Procedure, shortened: as §2

pigweed [7] = assay: Test C postemergence; format: in vivo, Amaranthus retroflexus
Procedure, shortened: as §2

ragweed = assay: Test C postemergence; format: in vivo, Ambrosia elation
Procedure, shortened: as §2

soybean = assay: Test C postemergence; format: in vivo, Glycine max
Procedure, shortened: as §2

barnyardgrass = assay: Test C postemergence; format: in vivo, Echinochloa crus-galli
Procedure, shortened: as §2

[8] = 125 g ai/ha, visual injury, 0 to 100 scale, approx. 10 days
[9] = 500 g ai/ha, visual injury after approx. 10 days, 0 to 100 scale (0 no effect, 100 complete control)
[10] = Postemergence, 500 g ai/ha, visual rating after approx. 10 days, 0 to 100 scale (0 no effect, 100 complete control)
[11] = postemergence, 125 g ai/ha, about 10 days, visual rating on 0 to 100 scale (0 no effect, 100 complete control)
[12] = 31 g ai/ha, visual rating, scale 0 to 100 (0 no effect, 100 complete control), 13 to 15 days
[13] = 62 g ai/ha, scale 0 to 100 (0 no effect, 100 complete control), 13 to 15 days
[14] = 125 g ai/ha, scale 0 to 100, 0 is no effect, 100 is complete control
[15] = Postemergence, 31 g ai/ha, visually evaluated after 13 to 15 days
[16] = postemergence, 62 g ai/ha, scale 0 to 100
[17] = postemergence, 250 g ai/ha, scale 0 to 100 (0 no effect, 100 complete control)
[18] = postemergence, 125 g ai/ha, scale 0 to 100, 0 no effect, 100 complete control

CCc1cc(C(=O)NCC(F)(F)F)nn1Cc1nc(C(F)(F)F)nn1C [Compound 107]
15: Plant response rating, Blackgrass (blackgrass [5]; [18]) | Foxtail, Giant plant response rating (foxtail, giant [6]; [16])
90: Crabgrass, Large plant response rating (crabgrass, large; [10]) | Corn plant response rating (corn; [10]) | Galium plant response rating (galium; [13]) | Johnsongrass plant response rating (johnsongrass; [14]) | Plant response rating, Ragweed (ragweed; [17]) | Plant response rating, Soybean (soybean; [17])
80: Crabgrass, Large plant response rating (crabgrass, large; [11])
95: Blackgrass plant response rating (blackgrass [3]; [12]) | Galium plant response rating (galium; [14])
55: Plant response rating, Foxtail, Giant (foxtail, giant [6]; [18])
5: Wheat plant response rating (wheat; [16]) | Plant response rating, Barnyardgrass (barnyardgrass; [18])
50: Corn plant response rating (corn; [11]) | Plant response rating (scale of 0 to 100 where 0 is no effect and 100 is complete control), Pigweed (pigweed [7]; [15]) | Soybean plant response rating (soybean; [16]) | Plant response rating, Soybean (soybean; [18])
35: Plant response rating, Blackgrass (blackgrass [5]; [17])
30: Johnsongrass plant response rating (johnsongrass; [12]) | Plant response rating, Wheat (wheat; [17]) | Plant response rating, Barnyardgrass (barnyardgrass; [17])
60: Plant response rating, Foxtail, Giant (foxtail, giant [6]; [17])
0: Plant response rating (scale of 0 to 100 where 0 is no effect and 100 is complete control), Wheat (wheat; [15]) | Plant response rating (scale of 0 to 100 where 0 is no effect and 100 is complete control), Barnyardgrass (barnyardgrass; [15]) | Barnyardgrass plant response rating (barnyardgrass; [16])
100: Foxtail, Giant plant response rating (foxtail, giant [1]; [8]) | Foxtail, Giant plant response rating (foxtail, giant [1]; [9]) | Pigweed plant response rating (pigweed [2]; [8]) | Pigweed plant response rating (pigweed [2]; [9]) | Plant response rating (scale of 0 to 100), Blackgrass (blackgrass [3]; Preemergence, 250 g ai/ha) | Blackgrass plant response rating (blackgrass [3]; [13]) | Blackgrass plant response rating (blackgrass [3]; [14]) | Plant response rating (scale of 0 to 100), Galium (galium; Preemergence, 250 g ai/ha) | Plant response rating (scale of 0 to 100), Johnsongrass (johnsongrass; Preemergence, 250 g ai/ha) | Plant response rating (scale of 0 to 100), Pigweed (pigweed [4]; Preemergence, 250 g ai/ha) | Pigweed plant response rating (pigweed [4]; [12]) | Pigweed plant response rating (pigweed [4]; [13]) | Pigweed plant response rating (pigweed [4]; [14])
10: Plant response rating (scale of 0 to 100 where 0 is no effect and 100 is complete control), Blackgrass (blackgrass [5]; [15]) | Blackgrass plant response rating (blackgrass [5]; [16]) | Plant response rating (scale of 0 to 100 where 0 is no effect and 100 is complete control), Foxtail, Giant (foxtail, giant [6]; [15]) | Plant response rating (scale of 0 to 100 where 0 is no effect and 100 is complete control), Ragweed (ragweed; [15])
20: Plant response rating, Wheat (wheat; [18]) | Plant response rating (scale of 0 to 100 where 0 is no effect and 100 is complete control), Soybean (soybean; [15])
85: Pigweed plant response rating (pigweed [7]; [16]) | Plant response rating, Pigweed (pigweed [7]; [17]) | Plant response rating, Pigweed (pigweed [7]; [18]) | Plant response rating, Ragweed (ragweed; [18])
75: Galium plant response rating (galium; [12])
65: Johnsongrass plant response rating (johnsongrass; [13]) | Ragweed plant response rating (ragweed; [16])
